# According to patent US9738634B2, “Heterocyclic amide compound and herbicide” (SYNGENTA PARTICIPATIONS AG, priority 2013, dated 2017):
# How the values were obtained:
# Format in all cases: in vivo
# Settings in all cases: treatment dosage 320 g/ha
# corn [1] = test: Test Example 4: foliar treatment, effect on crop; c: corn
# Method in brief: (§1)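 Seeds are spot-sown into sterilized diluvial soil and covered with about 1.5 cm of soil. After 14 days' greenhouse growth at 25 to 30° C, plants are sprayed on stems and leaves with diluted emulsion at the stated g/ha rate, then scored at 3 weeks.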
# rapeseed [2] = test: Test Example 3: soil treatment, effect on crop; g: rapeseed
# Method in brief: (§2)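 Crop and weed responses were judged three weeks after a uniform surface spray of the water-diluted emulsion at the given g/ha rate. Seeds sat beneath about 1.5 cm of sterilized diluvial soil, and boxes stood in a greenhouse at 25 to 30° C.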
# Italian ryegrass [3] = test: Test Example 4: weedkilling efficacy by foliar treatment; I: Italian ryegrass
# Method in brief: as §1
# corn [4] = test: Test Example 3: soil treatment, effect on crop; c: corn
# Method in brief: as §2
# barnyard grass [5] = test: Test Example 3: weedkilling efficacy through soil treatment; F: barnyard grass
# Method in brief: as §2
# redroot pigweed [6] = test: Test Example 3: weedkilling efficacy through soil treatment; L: redroot pigweed
# Method in brief: as §2
# barnyard grass [7] = test: Test Example 1: weedkilling efficacy, preemergent weed treatment in the submerged state; A: barnyard grass
# Method in brief: (§3)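 Pre-emergence paddy test: weed seeds sown in submerged alluvial soil (4 cm water), 2.5-leaf rice transplanted, water-diluted emulsion applied to water surface at sowing at stated g/ha. Scored at 3 weeks, greenhouse 25–30 °C.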
# green foxtail [8] = test: Test Example 3: weedkilling efficacy through soil treatment; E: green foxtail
# Method in brief: as §2
# oval-leafed pondweed [9] = test: Test Example 2: weedkilling efficacy, growth period weed treatment in the submerged state; C: oval-leafed pondweed
# Method in brief: (§4)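 Seedlings at 1-2 leaves in 4 cm-deep submerged alluvial soil received emulsion formulations on the water surface, dosed per hectare; effects were judged 3 weeks on.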
# beet [10] = test: Test Example 3: soil treatment, effect on crop; f: beet
# Method in brief: as §2
# Italian ryegrass [11] = test: Test Example 3: weedkilling efficacy through soil treatment; I: Italian ryegrass
# Method in brief: as §2
# chickweed [12] = test: Test Example 4: weedkilling efficacy by foliar treatment; N: chickweed
# Method in brief: as §1
# bulrush [13] = test: Test Example 2: weedkilling efficacy, growth period weed treatment in the submerged state; B: bulrush
# Method in brief: as §4
# oval-leafed pondweed [14] = test: Test Example 1: weedkilling efficacy, preemergent weed treatment in the submerged state; C: oval-leafed pondweed
# Method in brief: as §3
# birds-eye speedwell [15] = test: Test Example 4: weedkilling efficacy by foliar treatment; p: birds-eye speedwell
# Method in brief: as §1
# common wind-grass [16] = test: Test Example 3: weedkilling efficacy through soil treatment; J: common wind-grass
# Method in brief: as §2
# beet [17] = test: Test Example 4: foliar treatment, effect on crop; f: beet
# Method in brief: as §1
# catchweed [18] = test: Test Example 3: weedkilling efficacy through soil treatment; O: catchweed
# Method in brief: as §2
# crabgrass [19] = test: Test Example 4: weedkilling efficacy by foliar treatment; D: crabgrass
# Method in brief: as §1
# crabgrass [20] = test: Test Example 3: weedkilling efficacy through soil treatment; D: crabgrass
# Method in brief: as §2
# chickweed [21] = test: Test Example 3: weedkilling efficacy through soil treatment; N: chickweed
# Method in brief: as §2
# wheat [22] = test: Test Example 3: soil treatment, effect on crop; e: wheat
# Method in brief: as §2
# common wind-grass [23] = test: Test Example 4: weedkilling efficacy by foliar treatment; J: common wind-grass
# Method in brief: as §1
# soybean [24] = test: Test Example 3: soil treatment, effect on crop; d: soybean
# Method in brief: as §2
# directly sown rice [25] = test: Test Example 3: soil treatment, effect on crop; b: directly sown rice
# Method in brief: as §2
# redroot pigweed [26] = test: Test Example 4: weedkilling efficacy by foliar treatment; L: redroot pigweed
# Method in brief: as §1
# transplanted rice = test: Test Example 1: preemergent weed treatment in the submerged state, effect on crop; a: transplanted rice
# Method in brief: as §3
# directly sown rice [27] = test: Test Example 4: foliar treatment, effect on crop; b: directly sown rice
# Method in brief: as §1
# wheat [28] = test: Test Example 4: foliar treatment, effect on crop; e: wheat
# Method in brief: as §1
# wild oat [29] = test: Test Example 4: weedkilling efficacy by foliar treatment; G: wild oat
# Method in brief: as §1
# Indian mallow [30] = test: Test Example 4: weedkilling efficacy by foliar treatment; K: Indian mallow
# Method in brief: as §1
# catchweed [31] = test: Test Example 4: weedkilling efficacy by foliar treatment; O: catchweed
# Method in brief: as §1
# barnyard grass [32] = test: Test Example 2: weedkilling efficacy, growth period weed treatment in the submerged state; A: barnyard grass
# Method in brief: as §4
# soybean [33] = test: Test Example 4: foliar treatment, effect on crop; d: soybean
# Method in brief: as §1
# black-grass [34] = test: Test Example 3: weedkilling efficacy through soil treatment; H: black-grass
# Method in brief: as §2
# wild oat [35] = test: Test Example 3: weedkilling efficacy through soil treatment; G: wild oat
# Method in brief: as §2
# black-grass [36] = test: Test Example 4: weedkilling efficacy by foliar treatment; H: black-grass
# Method in brief: as §1
# barnyard grass [37] = test: Test Example 4: weedkilling efficacy by foliar treatment; F: barnyard grass
# Method in brief: as §1
# rapeseed [38] = test: Test Example 4: foliar treatment, effect on crop; g: rapeseed
# Method in brief: as §1
# Indian mallow [39] = test: Test Example 3: weedkilling efficacy through soil treatment; K: Indian mallow
# Method in brief: as §2
# birds-eye speedwell [40] = test: Test Example 3: weedkilling efficacy through soil treatment; p: birds-eye speedwell
# Method in brief: as §2
# bulrush [41] = test: Test Example 1: weedkilling efficacy, preemergent weed treatment in the submerged state; B: bulrush
# Method in brief: as §3
# fig-leafed goosefoot = test: Test Example 3: weedkilling efficacy through soil treatment; M: fig-leafed goosefoot
# Method in brief: as §2
# green foxtail [42] = test: Test Example 4: weedkilling efficacy by foliar treatment; E: green foxtail
# Method in brief: as §1
smiles,measurement,setting,value
COc1cc(Cl)cc(NC(=O)C(C)(C)N2COC(C)=C(c3ccccc3)C2=O)n1 [B-2-46],c (corn) effect on crop grade,corn [1],"1 (weed kill ratio 5% or more, less than 20%)"
same,g (rapeseed) effect on crop grade,rapeseed [2],"4 (weed kill ratio 70% or more, less than 90%)"
same,I (Italian ryegrass) weedkilling efficacy grade,Italian ryegrass [3],"4 (weed kill ratio 70% or more, less than 90%)"
same,c (corn) effect on crop grade,corn [4],"1 (weed kill ratio 5% or more, less than 20%)"
same,F (barnyard grass) weedkilling efficacy grade,barnyard grass [5],"5 (weed kill ratio 90% or more, (practically complete withering))"
same,L (redroot pigweed) weedkilling efficacy grade,redroot pigweed [6],"4 (weed kill ratio 70% or more, less than 90%)"
same,A (barnyard grass) weedkilling efficacy grade,barnyard grass [7],"5 (weed kill ratio 90% or more, (practically complete withering))"
same,E (green foxtail) weedkilling efficacy grade,green foxtail [8],"5 (weed kill ratio 90% or more, (practically complete withering))"
same,C (oval-leafed pondweed) weedkilling efficacy grade,oval-leafed pondweed [9],"5 (weed kill ratio 90% or more, (practically complete withering))"
same,f (beet) effect on crop grade,beet [10],"4 (weed kill ratio 70% or more, less than 90%)"
same,I (Italian ryegrass) weedkilling efficacy grade,Italian ryegrass [11],"5 (weed kill ratio 90% or more, (practically complete withering))"
same,N (chickweed) weedkilling efficacy grade,chickweed [12],"2 (weed kill ratio 20% or more, less than 40%)"
same,B (bulrush) weedkilling efficacy grade,bulrush [13],"5 (weed kill ratio 90% or more, (practically complete withering))"
same,C (oval-leafed pondweed) weedkilling efficacy grade,oval-leafed pondweed [14],"5 (weed kill ratio 90% or more, (practically complete withering))"
same,P (birds-eye speedwell) weedkilling efficacy grade,birds-eye speedwell [15],"4 (weed kill ratio 70% or more, less than 90%)"
same,J (common wind-grass) weedkilling efficacy grade,common wind-grass [16],"5 (weed kill ratio 90% or more, (practically complete withering))"
same,f (beet) effect on crop grade,beet [17],"4 (weed kill ratio 70% or more, less than 90%)"
same,O (catchweed) weedkilling efficacy grade,catchweed [18],"4 (weed kill ratio 70% or more, less than 90%)"
same,D (crabgrass) weedkilling efficacy grade,crabgrass [19],"4 (weed kill ratio 70% or more, less than 90%)"
same,D (crabgrass) weedkilling efficacy grade,crabgrass [20],"5 (weed kill ratio 90% or more, (practically complete withering))"
same,N (chickweed) weedkilling efficacy grade,chickweed [21],"4 (weed kill ratio 70% or more, less than 90%)"
same,e (wheat) effect on crop grade,wheat [22],0 (weed kill ratio 5% or less (practically no effect))
same,J (common wind-grass) weedkilling efficacy grade,common wind-grass [23],"5 (weed kill ratio 90% or more, (practically complete withering))"
same,d (soybean) effect on crop grade,soybean [24],0 (weed kill ratio 5% or less (practically no effect))
same,b (directly sown rice) effect on crop grade,directly sown rice [25],"4 (weed kill ratio 70% or more, less than 90%)"
same,L (redroot pigweed) weedkilling efficacy grade,redroot pigweed [26],0 (weed kill ratio 5% or less (practically no effect))
same,a (transplanted rice) effect on crop grade,transplanted rice,0 (weed kill ratio 5% or less (practically no effect))
same,b (directly sown rice) effect on crop grade,directly sown rice [27],"3 (weed kill ratio 40% or more, less than 70%)"
same,e (wheat) effect on crop grade,wheat [28],0 (weed kill ratio 5% or less (practically no effect))
same,G (wild oat) weedkilling efficacy grade,wild oat [29],"3 (weed kill ratio 40% or more, less than 70%)"
same,K (Indian mallow) weedkilling efficacy grade,Indian mallow [30],"3 (weed kill ratio 40% or more, less than 70%)"
same,O (catchweed) weedkilling efficacy grade,catchweed [31],"4 (weed kill ratio 70% or more, less than 90%)"
same,A (barnyard grass) weedkilling efficacy grade,barnyard grass [32],"5 (weed kill ratio 90% or more, (practically complete withering))"
same,d (soybean) effect on crop grade,soybean [33],0 (weed kill ratio 5% or less (practically no effect))
same,H (black-grass) weedkilling efficacy grade,black-grass [34],"5 (weed kill ratio 90% or more, (practically complete withering))"
same,G (wild oat) weedkilling efficacy grade,wild oat [35],"3 (weed kill ratio 40% or more, less than 70%)"
same,H (black-grass) weedkilling efficacy grade,black-grass [36],"4 (weed kill ratio 70% or more, less than 90%)"
same,F (barnyard grass) weedkilling efficacy grade,barnyard grass [37],"4 (weed kill ratio 70% or more, less than 90%)"
same,g (rapeseed) effect on crop grade,rapeseed [38],"4 (weed kill ratio 70% or more, less than 90%)"
same,K (Indian mallow) weedkilling efficacy grade,Indian mallow [39],"3 (weed kill ratio 40% or more, less than 70%)"
same,P (birds-eye speedwell) weedkilling efficacy grade,birds-eye speedwell [40],"5 (weed kill ratio 90% or more, (practically complete withering))"
same,B (bulrush) weedkilling efficacy grade,bulrush [41],"5 (weed kill ratio 90% or more, (practically complete withering))"
same,M (fig-leafed goosefoot) weedkilling efficacy grade,fig-leafed goosefoot,"4 (weed kill ratio 70% or more, less than 90%)"
same,E (green foxtail) weedkilling efficacy grade,green foxtail [42],"5 (weed kill ratio 90% or more, (practically complete withering))"
